Data from patent US20030027286A1, “Bacterial promoters and methods of use” (priority 2000, published 2003).

Assays:
[1] = system: Staphylococcus aureus cells expressing antisense to the β subunit of gyrase; assay: Antibiotic IC50 plus/minus xylose in Staphylococcus aureus expressing antisense to gyrase β subunit; format: cell-based; details: antisense to gyrase β subunit under Xyl-T5; 12 mM vs 0 mM xylose; FIG. 15
Protocol: Sensitized cells were also used to identify the pathway in which a gene required for proliferation of Staphylococcus aureus lies. Antibiotics of various chemical classes and modes of action were purchased from chemical suppliers, for example Sigma Chemicals (St. Louis, Mo.). Stock solutions were prepared by dissolving each antibiotic in an appropriate aqueous solution based on information provided by the manufacturer. The final working solution of each antibiotic contained no more than 0.2% (w/v) of any organic solvent.
To determine its potency against a bacterial strain containing an antisense nucleic acid complementary to the sequence encoding the Beta (>) subunit of gyrase (which is required for proliferation) under the control of the Xyl-T5 fusion promoter, each antibiotic was serially diluted two or three fold in growth medium supplemented with the appropriate antibiotic for maintenance of the anti-sense construct. At least ten dilutions were prepared for each antibiotic.
Aliquots (25 μL) of each dilution were transferred to discrete wells of a 384-well microplate (the assay plate) using a multi-channel pipette. Quadruplicate wells were used for each dilution of an antibiotic under each treatment condition (plus and minus inducer). Each assay plate retained twenty wells for cell growth controls (growth media replacing antibiotic), ten wells for each treatment (plus and minus inducer, in this example xylose). Half the assay plate contained induced cells (in this example Staphylococcus aureus cells) and appropriate concentrations of inducer (in this example xylose) to maintain the state of induction while the other half of the assay plate contained non-induced cells in the absence of inducer.
Cells of a bacterial clone containing a construct in which expression of antisense complementary to the sequence encoding the β subunit of gyrase under the control of a xylose inducible promoter were grown into exponential growth (OD600 0.2 to 0.3) and then diluted 1:100 into fresh media containing either 12 mM or 0 mM inducer (xylose). These cultures were incubated at 37° C. for 2.5 hr. The presence of inducer (xylose) in the medium initiates and maintains production of antisense RNA from the antisense construct, in this case. After a 2.5 hr incubation, induced and non-induced cells were respectively diluted into an assay medium containing an appropriate concentration of the antibiotic for the maintenance of the anti-sense construct. In addition, medium used to dilute induced cells was supplemented with 24 mM xylose so that addition to the assay plate would result in a final xylose concentration of 12 mM. The cells were diluted to a final OD600 value of 0.0004.
Induced and non-induced cell suspensions were dispensed (25 :l/well) into the appropriate wells of the assay plate as discussed previously. The plate was then loaded into a plate reader and incubated at constant temperature while cell growth was monitored in each well by the measurement of light scattering at 595 nm. Growth was monitored every 5 minutes until the cell culture attained a stationary growth phase. For each concentration of antibiotic, a percentage inhibition of growth was calculated at the time point corresponding to mid-exponential growth for the associated control wells (no antibiotic, plus or minus xylose). For each antibiotic and condition (plus or minus xylose), plots of percent inhibition versus Log of antibiotic concentration were generated and IC50s determined.

[2] = system: E. coli expressing antisense RNA; assay: Antibiotic sensitivity of E. coli sensitized by IPTG-induced antisense RNA; format: cell-based, Escherichia coli; details: for sensitivity to antibiotic of antisense-expressing clones: initial experiments
From the text: The effectiveness of the above cell-based assay was validated using constructs expressing antisense RNA to the proliferation required E. coli genes rplL, rplJ, and rplW encoding ribosomal proteins L7/L12, L10 and L23 respectively. These proteins are part of the protein synthesis apparatus of the cell and as such are required for proliferation. These constructs were used to test the effect of antisense expression on cell sensitivity to antibiotics known to bind to the ribosome and thereby inhibit protein synthesis. Constructs expressing antisense RNA to several other genes (elaD, visC, yohH, and atpE/B), the products of which are not involved in protein synthesis were used for comparison.
First, pLex5BA (Krause et al. 1997. J. Mol. Biol. 274: 365, the disclosure of which is incorporated herein by reference in its entirety) expression vectors containing antisense constructs to either rplW or to elaD were introduced into separate E. coli cell populations. Vector introduction is a technique well known to those of ordinary skill in the art. The expression vectors of this example contain IPTG inducible promoters that drive the expression of the antisense RNA in the presence of the inducer. However, those skilled in the art will appreciate that other inducible promoters may also be used. Suitable expression vectors are also well known in the art. The E. coli antisense clones to genes encoding ribosomal proteins L7/L12, L10 and L23 were used to test the effect of antisense expression on cell sensitivity to the antibiotics known to bind to these proteins. […]
The cell populations were exposed to a range of IPTG concentrations in liquid medium to obtain the growth inhibitory dose curve for each clone. First, seed cultures were grown to a particular turbidity that is measured by the optical density (OD) of the growth solution. […] The cells were grown for up to 15 hours and the extent of growth was determined by measuring the optical density of the cultures at 600 nm. […]

Structure (SMILES)	potency in induced cells as compared to uninduced cells [1]	also measured
CO/N=C(\C(=O)N[C@@H]1C(=O)N2C(C(=O)O)=C(COC(C)=O)CS[C@H]12)c1csc(N)n1 [cefotaxime]	not significantly different	–
CO[C@@]1(NC(=O)Cc2cccs2)C(=O)N2C(C(=O)O)=C(COC(N)=O)CS[C@@H]21 [cefoxitin]	not significantly different	–
CC[C@H]1OC(=O)[C@H](C)[C@@H](O[C@H]2C[C@@](C)(OC)[C@@H](O)[C@H](C)O2)[C@H](C)[C@@H](O[C@@H]2O[C@H](C)C[C@H](N(C)C)[C@H]2O)[C@](C)(O)C[C@@H](C)C(=O)[C@H](C)[C@@H](O)[C@]1(C)O [erythromycin]	–	sensitivity to antibiotic of antisense-expressing clones ([2]; clones antisense to non-protein synthesis genes elaD, atpB/E and visC): do not; sensitivity to antibiotic of antisense-expressing clones ([2]; clones antisense to protein synthesis genes (L7/L12 & L10, L7/L12 alone, L22, L18, rRNA, Elongation Factor G)): increased sensitivity
CC(=O)O[C@H]1C[C@@]2(C)[C@@H](C[C@@H](O)[C@H]3[C@@]4(C)CC[C@@H](O)[C@@H](C)[C@@H]4CC[C@@]32C)/C1=C(\CCC=C(C)C)C(=O)O [fusidic acid]	not significantly different	–
CCC[C@@H]1C[C@@H](C(=O)N[C@@H]([C@H]2O[C@H](SC)[C@H](O)[C@@H](O)[C@H]2O)[C@@H](C)O)N(C)C1 [lincomycin]	not significantly different	–
CCn1cc(C(=O)O)c(=O)c2ccc(C)nc21 [nalidixic acid]	–	sensitivity to antibiotic of antisense-induced cells ([2]; E. coli expressing antisense to rplL and rplJ (reduced L7/L12), IPTG): does not show increased sensitivity
CO[C@@H]1[C@@H](OC(N)=O)[C@@H](O)[C@H](Oc2ccc3c(O)c(NC(=O)c4ccc(O)c(CC=C(C)C)c4)c(=O)oc3c2C)OC1(C)C [novobiocin]	significantly different	–
NC[C@H]1O[C@H](O[C@H]2[C@H](O)[C@@H](O[C@H]3O[C@H](CO)[C@@H](O)[C@H](N)[C@H]3O)[C@H](N)C[C@@H]2N)[C@H](N)C[C@@H]1O [tobramycin]	not significantly different	–
COc1cc(Cc2cnc(N)nc2N)cc(OC)c1OC [trimethoprim]	not significantly different	–
CN[C@H](CC(C)C)C(=O)N[C@H]1C(=O)N[C@@H](CC(N)=O)C(=O)N[C@H]2C(=O)N[C@H]3C(=O)N[C@H](C(=O)N[C@H](C(=O)O)c4cc(O)cc(O)c4-c4cc3ccc4O)[C@H](O)c3ccc(c(Cl)c3)Oc3cc2cc(c3O[C@@H]2O[C@H](CO)[C@@H](O)[C@H](O)[C@H]2O[C@H]2C[C@](C)(N)[C@H](O)[C@H](C)O2)Oc2ccc(cc2Cl)[C@H]1O [vancomycin]	not significantly different	–
